Results taken from patent publication US20120029187A1, “HALOALKYLSULFONANILIDE DERIVATIVE” (Nissan Chemical Industries, Ltd., priority 2009, published 2012).

Tests used:
Assay type in all cases: in vivo
barnyardgrass [1] = assay: Test Example 1: herbicidal effects in preemergence treatment under submerged conditions; conditions: dose 2.52 g/a
How it was run: (§1)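 Alluvial soil flooded to 4 cm depth; barnyardgrass, bulrush and ducksalad sown and 2.5-leaf rice seedlings transplanted. Same day, water-diluted emulsifiable concentrates applied to the water surface at set doses (g/a). Kept at 25–30 °C in greenhouse; effects scored 0–5 by mortality after three weeks.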

bulrush [2] = assay: as above; conditions: dose 2.52 g/a
How it was run: as §1

ducksalad [3] = assay: as above; conditions: dose 2.52 g/a
How it was run: as §1

transplanted rice = assay: Test Example 1: preemergence treatment under submerged conditions, effect on crop; conditions: dose 2.52 g/a
How it was run: as §1

barnyardgrass [4] = assay: Test Example 2: herbicidal effects during the vegetation period under submerged conditions; conditions: treatment during the vegetation period under submerged conditions; dose 2.52 g/a
How it was run: (§2)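 Barnyardgrass, bulrush and ducksalad were co-sown in alluvial soil flooded to 4 cm and grown in a greenhouse at 25 to 30° C. At the 1- or 2-leaf stage, water-diluted emulsifiable concentrates went onto the water surface at set doses (g/a). Herbicidal effect was scored three weeks later on a graded scale.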

bulrush [5] = assay: as above; conditions: treatment during the vegetation period under submerged conditions; dose 2.52 g/a
How it was run: as §2

ducksalad [6] = assay: as above; conditions: treatment during the vegetation period under submerged conditions; dose 2.52 g/a
How it was run: as §2

Italian ryegrass [7] = assay: Test Example 3: herbicidal effects in soil treatment; conditions: dose 3.2 g/a
How it was run: (§3)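 Seeds were sown in sterilized diluvial soil and covered with about 1.5 cm of soil. Compounds, formulated as emulsifiable concentrates and diluted with water, were sprayed evenly over the soil surface at set doses in g/a. Herbicidal effect was scored on a rating scale three weeks later.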

barnyardgrass [8] = assay: as above; conditions: dose 3.2 g/a
How it was run: as §3

beadstraw [9] = assay: as above; conditions: dose 3.2 g/a
How it was run: as §3

common chickweed [10] = assay: as above; conditions: dose 3.2 g/a
How it was run: as §3

common lambsquater [11] = assay: as above; conditions: dose 3.2 g/a
How it was run: as §3

common ragweed [12] = assay: as above; conditions: dose 3.2 g/a
How it was run: as §3

giant foxtail [13] = assay: as above; conditions: dose 3.2 g/a
How it was run: as §3

large crabgrass [14] = assay: as above; conditions: dose 3.2 g/a
How it was run: as §3

posumbu knotweed [15] = assay: as above; conditions: dose 3.2 g/a
How it was run: as §3

redroot pigweed [16] = assay: as above; conditions: dose 3.2 g/a
How it was run: as §3

velvetleaf [17] = assay: as above; conditions: dose 3.2 g/a
How it was run: as §3

water foxtail [18] = assay: as above; conditions: dose 3.2 g/a
How it was run: as §3

Italian ryegrass [19] = assay: Test Example 4: herbicidal effect in foliage treatment; conditions: dose 3.2 g/a, three weeks after application
How it was run: (§4)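 Seeds were spot-sown in boxes of sterilized diluvial soil and raised in a greenhouse (25 to 30° C) for 14 days before a single foliar application. Compounds were applied as emulsifiable concentrates diluted with water, at predetermined doses in g/a. Injury was graded three weeks post-spray.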

barnyardgrass [20] = assay: as above; conditions: dose 3.2 g/a, three weeks after application
How it was run: as §4

beadstraw [21] = assay: as above; conditions: dose 3.2 g/a, three weeks after application
How it was run: as §4

common chickweed [22] = assay: as above; conditions: dose 3.2 g/a, three weeks after application
How it was run: as §4

common lambsquater [23] = assay: as above; conditions: dose 3.2 g/a, three weeks after application
How it was run: as §4

common ragweed [24] = assay: as above; conditions: dose 3.2 g/a, three weeks after application
How it was run: as §4

giant foxtail [25] = assay: as above; conditions: dose 3.2 g/a, three weeks after application
How it was run: as §4

large crabgrass [26] = assay: as above; conditions: dose 3.2 g/a, three weeks after application
How it was run: as §4

posumbu knotweed [27] = assay: as above; conditions: dose 3.2 g/a, three weeks after application
How it was run: as §4

redroot pigweed [28] = assay: as above; conditions: dose 3.2 g/a, three weeks after application
How it was run: as §4

velvetleaf [29] = assay: as above; conditions: dose 3.2 g/a, three weeks after application
How it was run: as §4

water foxtail [30] = assay: as above; conditions: dose 3.2 g/a, three weeks after application
How it was run: as §4

Row | Compound | A: barnyardgrass, herbicidal effect (evaluation scale 0-5) (barnyardgrass [1]) | B: bulrush, herbicidal effect (evaluation scale 0-5) (bulrush [2]) | C: ducksalad, herbicidal effect (evaluation scale 0-5) (ducksalad [3]) | a: transplanted rice, effect on crop (evaluation scale 0-5) (transplanted rice) | A: barnyardgrass, herbicidal effect (evaluation scale 0-5) (barnyardgrass [4]) | B: bulrush, herbicidal effect (evaluation scale 0-5) (bulrush [5]) | C: ducksalad, herbicidal effect (evaluation scale 0-5) (ducksalad [6]) | H: Italian ryegrass, herbicidal effect (evaluation scale 0-5) (Italian ryegrass [7]) | A: barnyardgrass, herbicidal effect (evaluation scale 0-5) (barnyardgrass [8]) | O: beadstraw, herbicidal effect (evaluation scale 0-5) (beadstraw [9]) | N: common chickweed, herbicidal effect (evaluation scale 0-5) (common chickweed [10]) | L: common lambsquater, herbicidal effect (evaluation scale 0-5) (common lambsquater [11]) | J: common ragweed, herbicidal effect (evaluation scale 0-5) (common ragweed [12]) | E: giant foxtail, herbicidal effect (evaluation scale 0-5) (giant foxtail [13]) | D: large crabgrass, herbicidal effect (evaluation scale 0-5) (large crabgrass [14]) | M: posumbu knotweed, herbicidal effect (evaluation scale 0-5) (posumbu knotweed [15]) | K: redroot pigweed, herbicidal effect (evaluation scale 0-5) (redroot pigweed [16]) | I: velvetleaf, herbicidal effect (evaluation scale 0-5) (velvetleaf [17]) | G: water foxtail, herbicidal effect (evaluation scale 0-5) (water foxtail [18]) | H: Italian ryegrass, herbicidal effect (Italian ryegrass [19]) | also measured
1 | CCC(=O)N(c1ccccc1CN1COC(C)(CC(F)(F)F)CC1=O)S(=O)(=O)C(F)(F)F (centres unmarked) [II-52] | 5 (mortality of 90% or above (nearly complete death)) | 5 (mortality of 90% or above (nearly complete death)) | 5 (mortality of 90% or above (nearly complete death)) | 0 (mortality of less than 5% (almost ineffective)) | 5 (mortality of 90% or above (nearly complete death)) | 5 (mortality of 90% or above (nearly complete death)) | 5 (mortality of 90% or above (nearly complete death)) | 5 (mortality of 90% or above (nearly complete death)) | 5 (mortality of 90% or above (nearly complete death)) | 0 (mortality of less than 5% (almost ineffective)) | 5 (mortality of 90% or above (nearly complete death)) | 4 (mortality of at least 70% and less than 90%) | 5 (mortality of 90% or above (nearly complete death)) | 5 (mortality of 90% or above (nearly complete death)) | 5 (mortality of 90% or above (nearly complete death)) | 5 (mortality of 90% or above (nearly complete death)) | 1 (mortality of at least 5% and less than 20%) | 5 (mortality of 90% or above (nearly complete death)) | 5 (mortality of 90% or above (nearly complete death)) | 4 (mortality of at least 70% and less than 90%) | A: barnyardgrass, herbicidal effect (barnyardgrass [20]): 5 (mortality of 90% or above (nearly complete death)); O: beadstraw, herbicidal effect (beadstraw [21]): 5 (mortality of 90% or above (nearly complete death)); N: common chickweed, herbicidal effect (common chickweed [22]): 4 (mortality of at least 70% and less than 90%); L: common lambsquater, herbicidal effect (common lambsquater [23]): 4 (mortality of at least 70% and less than 90%); J: common ragweed, herbicidal effect (common ragweed [24]): 3 (mortality of at least 40% and less than 70%); E: giant foxtail, herbicidal effect (giant foxtail [25]): 5 (mortality of 90% or above (nearly complete death)); D: large crabgrass, herbicidal effect (large crabgrass [26]): 4 (mortality of at least 70% and less than 90%); M: posumbu knotweed, herbicidal effect (posumbu knotweed [27]): 1 (mortality of at least 5% and less than 20%); K: redroot pigweed, herbicidal effect (redroot pigweed [28]): 0 (mortality of less than 5% (almost ineffective)); I: velvetleaf, herbicidal effect (velvetleaf [29]): 3 (mortality of at least 40% and less than 70%); G: water foxtail, herbicidal effect (water foxtail [30]): 5 (mortality of 90% or above (nearly complete death))
2 | COCC1(C)CC(=O)N(Cc2ccccc2N(C(=O)OCC(C)C)S(=O)(=O)C(F)(F)F)CO1 (centres unmarked) [II-56] | 5 (mortality of 90% or above (nearly complete death)) | 5 (mortality of 90% or above (nearly complete death)) | 5 (mortality of 90% or above (nearly complete death)) | 0 (mortality of less than 5% (almost ineffective)) | 5 (mortality of 90% or above (nearly complete death)) | 5 (mortality of 90% or above (nearly complete death)) | 5 (mortality of 90% or above (nearly complete death)) | 5 (mortality of 90% or above (nearly complete death)) | 5 (mortality of 90% or above (nearly complete death)) | 0 (mortality of less than 5% (almost ineffective)) | 5 (mortality of 90% or above (nearly complete death)) | 3 (mortality of at least 40% and less than 70%) | 4 (mortality of at least 70% and less than 90%) | 5 (mortality of 90% or above (nearly complete death)) | 4 (mortality of at least 70% and less than 90%) | 3 (mortality of at least 40% and less than 70%) | 2 (mortality of at least 20% and less than 40%) | 5 (mortality of 90% or above (nearly complete death)) | 5 (mortality of 90% or above (nearly complete death)) | 3 (mortality of at least 40% and less than 70%) | A: barnyardgrass, herbicidal effect (barnyardgrass [20]): 5 (mortality of 90% or above (nearly complete death)); O: beadstraw, herbicidal effect (beadstraw [21]): 3 (mortality of at least 40% and less than 70%); N: common chickweed, herbicidal effect (common chickweed [22]): 4 (mortality of at least 70% and less than 90%); L: common lambsquater, herbicidal effect (common lambsquater [23]): 3 (mortality of at least 40% and less than 70%); J: common ragweed, herbicidal effect (common ragweed [24]): 4 (mortality of at least 70% and less than 90%); E: giant foxtail, herbicidal effect (giant foxtail [25]): 4 (mortality of at least 70% and less than 90%); D: large crabgrass, herbicidal effect (large crabgrass [26]): 0 (mortality of less than 5% (almost ineffective)); M: posumbu knotweed, herbicidal effect (posumbu knotweed [27]): 0 (mortality of less than 5% (almost ineffective)); K: redroot pigweed, herbicidal effect (redroot pigweed [28]): 2 (mortality of at least 20% and less than 40%); I: velvetleaf, herbicidal effect (velvetleaf [29]): 5 (mortality of 90% or above (nearly complete death)); G: water foxtail, herbicidal effect (water foxtail [30]): 5 (mortality of 90% or above (nearly complete death))
